Test results from US9145424B2, “Treatment of amyotrophic lateral sclerosis” (Northwestern University, priority 2008, dated 2015).
pEC50: −log10 of the molar value. Read-outs that look alike come from different tables or passages of the source.

System: PC12 cells that express mutant G93A SOD1
Assay: Mutant SOD1-induced cytotoxicity protection assay
Conditions: for Corresponding % viability: rat, 48 h
Method: This idea was tested by examining the sensitivity of PC12 cells to SOD1 aggregates in the presence and absence of proteasome inhibitor MG132. PC12 cells expressing no SOD1, wild type SOD1, G85R SOD1 or G93A SOD1 were grown with or without MG132 (FIG. 1).
PC12 cells expressing G93A SOD1 were treated with 100 nM MG132 with or without co-treatment with geldanamycin or radicicol.

[1] = Rattus norvegicus, PC-12, read-out: Best EC50, PC12 G93A SOD1 cells, MG132, calcein-AM viability
[2] = Rattus norvegicus, PC-12, read-out: EC50 after Normalization, normalised with the corresponding 3299 EC50
[3] = read-out: Best EC50, PC12 G93A SOD1 cells, MG132, calcein-AM viability
[4] = read-out: EC50 after Normalization, normalised with the corresponding 3299 EC50

| Compound | pEC50 [1] | Corresponding % viability | pEC50 [2] | pEC50 [3] | pEC50 [4] | activity in the cytotoxicity protection assay, in words |
| --- | --- | --- | --- | --- | --- | --- |
| O=c1cc(CSc2ccccc2)[nH][nH]1 [CMB-053526-1] | 5.16 | 77% |  |  |  |  |
| CC(C)(C)c1ccc(SCc2cc(=O)[nH][nH]2)cc1 [CMB-053527-1] | 5.27 | 150% | 5.64 |  |  |  |
| O=c1cc(CSc2ccc([N+](=O)[O-])cc2)[nH][nH]1 [CMB-053528-1] | 5.25 | 136% | 5.62 |  |  |  |
| O=c1cc(CSc2ccc(Cl)cc2)[nH][nH]1 [CMB-053529-1] |  | 93% | 5.71 | 5.35 |  |  |
| O=C1NN=C(CSc2ccccc2)C1=Cc1ccccc1 [CMB-053530-1] | < 4.49 |  |  |  |  |  |
| O=c1cc(CSc2ccc(Br)cc2)[nH][nH]1 [CMB-053543-1] | 5.37 | 94% | 5.74 |  |  |  |
| O=c1cc(CSc2ccc(Cl)c(Cl)c2)[nH][nH]1 [CMB-053544-1] | 5.59 | 113% | 5.72 |  |  |  |
| O=c1cc(CSc2ccc(Cl)cc2Cl)[nH][nH]1 [CMB-053545-1] | 5.80 | 124% | 5.94 |  |  |  |
| O=c1cc(CSc2ccc(Cl)cc2)[nH]n1-c1ccccc1 [CMB-086473-1] | 5.29 | 109% | 5.46 |  |  |  |
| O=c1cc(C[S+]([O-])c2ccc(Cl)cc2)[nH]n1-c1ccccc1 (centres unmarked) [CMB-086474-1] | < 4.49 |  |  |  |  |  |
| O=c1cc(CS(=O)(=O)c2ccc(Cl)cc2)[nH][nH]1 [CMB-086475-1] | 5.16 | 110% | 5.33 |  |  |  |
| CN(C)c1ccc(SCc2cc(=O)[nH][nH]2)cc1 [CMB-086476-1] | 5.78 | 77% |  |  |  |  |
| COc1ccc(SCc2cc(=O)[nH][nH]2)cc1 [CMB-086477-1] | 5.38 | 102% | 5.74 |  |  |  |
| O=c1cc(CSc2ccc(F)cc2)[nH][nH]1 [CMB-086478-1] | 5.33 | 104% | 5.46 |  |  |  |
| Cc1ccc(C)c(SCc2cc(=O)[nH][nH]2)c1 [CMB-086479-1] | 6.66 | 77% |  |  |  |  |
| O=c1cc(CSc2c(Cl)cccc2Cl)[nH][nH]1 [CMB-086480-1] | 6.59 | 142% | 6.02 |  |  |  |
| Cc1cc(SCc2cc(=O)[nH][nH]2)c(C)cc1Cl [CMB-086481-1] |  | 140% | 6.41 | 6.37 |  |  |
| Cc1cc([S+]([O-])Cc2cc(=O)[nH][nH]2)c(C)cc1Cl (centres unmarked) [CMB-086482-1] | 5.35 | 123% | 5.54 |  |  |  |
| O=c1cc(CSc2ccc(F)cc2Cl)[nH][nH]1 [CMB-086832-1] | 5.79 | 68% |  |  |  |  |
| O=c1cc(CSc2cccc(Cl)c2)[nH][nH]1 [CMB-086833-1] | 6.60 | 148% | 5.95 |  |  |  |

| Compound | pEC50 [1] | Corresponding % viability | pEC50 [2] | pEC50 [3] | pEC50 [4] | activity in the cytotoxicity protection assay, in words |
| --- | --- | --- | --- | --- | --- | --- |
| O=c1cc(CSc2ccccc2Cl)[nH][nH]1 [CMB-086834-1] | 6.08 | 123% | 5.52 |  |  |  |
| O=c1cc(CSc2cc(Cl)cc(Cl)c2)[nH][nH]1 [CMB-086835-1] |  | 134% | 6.77 | 7.10 |  |  |
| O=c1cc(CSc2cc(Cl)cc(Cl)c2)[nH][nH]1 [CMB-086835-2] |  | 129% |  | 6.52 | 6.54 |  |
| O=c1cc(CSc2ccc(Cl)cc2)[nH][nH]1 [CMB-086836-1] | 5.38 | 75% |  |  |  |  |
| O=c1cc(CSc2ccc(-c3ccccc3)cc2)[nH][nH]1 [CMB-086883-1] | 5.03 | 115% | 5.39 |  |  |  |
| CC(C)c1ccccc1SCc1cc(=O)[nH][nH]1 [CMB-086899-1] | 6.40 | 106% | 6.32 |  |  |  |
| O=c1cc(CSCCOc2ccccc2)[nH][nH]1 [CMB-086900-1] | 5.21 | 97% | 5.12 |  |  |  |
| CCc1ccccc1SCc1cc(=O)[nH][nH]1 [CMB-086901-1] | 5.69 | 106% | 5.60 |  |  |  |
| O=c1cc(COc2ccc(Cl)cc2)[nH][nH]1 [CMB-086902-1] |  | 131% | 6.19 | 6.24 |  |  |
| O=c1cc(COc2ccc(Cl)cc2)[nH][nH]1 [CMB-086902-2] |  | 117% |  | 6.16 | 6.10 |  |
| O=c1cc(COc2ccc(Cl)cc2)[nH][nH]1 [CMB-086902-3] |  | 120% |  | 5.46 | 6.11 |  |
| CCc1ccc(S(=O)(=O)Cc2cc(=O)[nH][nH]2)cc1 [CMB-087210-1] | 6.00 | 101% | 6.05 |  |  |  |
| CC(C)c1ccc(S(=O)(=O)Cc2cc(=O)[nH][nH]2)cc1 [CMB-087211-1] | 6.12 | 103% | 6.17 |  |  |  |
| CCCCc1ccc(S(=O)(=O)Cc2cc(=O)[nH][nH]2)cc1 [CMB-087212-1] | 6.00 | 93% | 6.05 |  |  |  |
| Cc1cc(S(=O)(=O)Cc2cc(=O)[nH][nH]2)c(C)cc1Cl [CMB-087213-1] | 5.64 | 116% | 5.83 |  |  |  |
| CCc1cccc(OCc2cc(=O)[nH][nH]2)c1 [CMB-087214-1] | 5.95 | 125% | 6.14 |  |  |  |
| CC(C)(C)c1cccc(OCc2cc(=O)[nH][nH]2)c1 [CMB-087215-1] | 5.97 | 141% | 6.06 |  |  |  |
| O=c1cc(COc2cc(Cl)cc(Cl)c2)[nH][nH]1 [CMB-087229-1] |  | 129% |  | 7.30 | 7.17 |  |
| O=c1cc(COc2cc(Cl)cc(Cl)c2)[nH][nH]1 [CMB-087229-5] |  | 123% |  | 6.26 | 6.51 |  |
| O=c1cc(CS(=O)(=O)c2cc(Cl)cc(Cl)c2)[nH][nH]1 [CMB-087235-1] | 6.44 | 130% | 6.12 |  |  |  |

| Compound | pEC50 [1] | Corresponding % viability | pEC50 [2] | pEC50 [3] | pEC50 [4] | activity in the cytotoxicity protection assay, in words |
| --- | --- | --- | --- | --- | --- | --- |
| O=c1cc(CS(=O)(=O)c2cc(Cl)cc(Cl)c2)[nH][nH]1 [CMB-087235-2] |  | 132% |  | 6.17 | 5.85 |  |
| CCc1ccc(OCc2cc(=O)[nH][nH]2)cc1 [CMB-087241-1] | 5.48 | 88% | 5.71 |  |  |  |
| O=c1cc(COc2ccc(Cl)c(Cl)c2)[nH][nH]1 [CMB-087242-1] | 6.89 | 136% | 6.24 |  |  |  |
| O=c1cc(COc2cc(C(F)(F)F)cc(C(F)(F)F)c2)[nH][nH]1 [CMB-087260-1] | 6.89 | 120% | 6.24 |  |  |  |
| Cn1[nH]c(COc2cc(Cl)cc(C(F)(F)F)c2)cc1=O [CMB-087264-1] | 5.18 | 109% | 5.29 |  |  |  |
| Cn1[nH]c(COc2ccc(Cl)cc2)cc1=O [CMB-087362-1] | 5.12 | 107% | 5.23 |  |  |  |
| Cn1c(COc2cc(Cl)cc(Cl)c2)cc(=O)n1C [CMB-087363-1] | < 4.49 |  |  |  |  |  |
| O=c1cc(COc2cc(F)cc(F)c2)[nH][nH]1 [CMB-087627-1] | 5.49 | 125% | 5.97 |  |  |  |
| O=c1cc(COc2cc(Br)cc(Br)c2)[nH][nH]1 [CMB-087628-1] | 5.81 | 125% | 6.29 |  |  |  |
| O=c1cc(COc2cccc(Br)c2)[nH][nH]1 [CMB-087642-1] | 5.51 | 144% | 5.99 |  |  |  |
| O=c1cc(COc2cccc(-c3ccccc3)c2)[nH][nH]1 [CMB-087643-1] | 5.07 | 96% | 5.55 |  |  |  |
| O=c1cc(COc2cc(-c3ccccc3)cc(-c3ccccc3)c2)[nH][nH]1 [CMB-087644-1] | 4.96 | 68% | 5.43 |  |  |  |
| O=c1cc(CN(c2cc(Cl)cc(Cl)c2)S(=O)(=O)c2ccccc2)[nH][nH]1 [CMB-087645-1] | 5.04 | 111% | 5.84 |  |  |  |
| O=c1cc(CNc2cc(Cl)cc(Cl)c2)[nH][nH]1 [CMB-087650-1] | 5.68 | 128% | 6.48 |  |  |  |
| CN(Cc1cc(=O)n(Cc2ccccc2)[nH]1)c1cc(Cl)cc(Cl)c1 [Compound 29, 2-Benzyl-5-(((3,5-dichlorophenyl)(methyl)amino)methyl)-1H-pyrazol-3(2H)-one] |  |  |  |  |  | comparable in activity to parent compound 3 |
| CN(Cc1cc(=O)n(C)[nH]1)c1cc(Cl)cc(Cl)c1 [Compound 30, 5-(((3,5-Dichlorophenyl)(methyl)amino)methyl)-2-methyl-1H-pyrazol-3(2H)-one] |  |  |  |  |  | comparable in activity to parent compound 3 |
| CN(Cc1cc(=O)[nH]n1C)c1cc(Cl)cc(Cl)c1 [Compound 31, 5-(((3,5-Dichlorophenyl)(methyl)amino)methyl)-1-methyl-1H-pyrazol-3(2H)-one] |  |  |  |  |  | devoid of activity |
| Cc1c(CN(C)c2cc(Cl)cc(Cl)c2)n(C)n(C)c1=O [Compound 32, 5-(((3,5-Dichlorophenyl)(methyl)amino)methyl)-1,2,4-trimethyl-1H-pyrazol-3(2H)-one] |  |  |  |  |  | devoid of activity |
